Records with an inconclusive call do not appear. Activity calls are given as the source filed them.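 Rule for the calls: active = falling-signal curve with half-maximal concentration at or below ten times the top tested dose; inconclusive = flat fit at 30 to 70% inhibition, or poor fit; inactive = signal rise, flat within 30%, or potency beyond limit.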
System: NIH3T3 R4 HSE-GFP/Tet-RFP reporter, fluorescence, 48 h
Experiment: dox-induced RFP signal loss in R4-3T3 cells – cell-based, NIH3T3 R4, HSE-GFP and Tet-On RFP, cherry-pick, set 3, dose response (AID 493085);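 note: cells heat shocked 2 h at 42 °C with doxycycline to induce reporters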

| SMILES | AC50 |
| --- | --- |
| CCN1C/C(=C/c2ccc(OC)c(O)c2)C(=O)/C(=C/c2ccc(OC)c(O)c2)C1 | 1.8 µM |
| CC1=NNC(=O)/C1=C\c1cn(-c2ccccc2)nc1-c1ccc(Cl)cc1 | 17.4 µM |
| O=C(Nc1nnc(S(=O)(=O)N2CCCCCC2)s1)c1cccc(Br)c1 | 0.889 µM |
| COCC1CCCCN1C(=O)c1cc(COc2ccc3ncccc3c2)on1 (stereo unspecified) | 0.448 µM |
| CC1CCc2nc(N)c(C#N)c(-c3cccnc3)c2C1 (stereo unspecified) | 0.708 µM |
| O=C(C#Cc1ccccc1)c1ccco1 | 4.11 µM |
| O=C(c1nnsc1S(=O)(=O)c1ccc(Cl)cc1)N1CCOCC1 | 17.3 µM |
| COc1ccccc1NC(=O)c1nc(S(=O)(=O)Cc2ccccc2)ncc1Cl | 4.02 µM |
| N#CC1=C(N)Oc2cc(N)ccc2C1c1ccccc1Cl (stereo unspecified) | > 19.5 µM (inactive) |
| O=c1c(Cl)c(Cl)cnn1-c1ccccc1 | 14.4 µM |
| CCn1c(SCC(=O)Nc2oc(C)c3c(C)n[nH]c(=O)c23)nc2sc(C)c(C)c2c1=O | > 19.5 µM (inactive) |
| COC(=O)c1c(N2C(=O)[C@H]3[C@@H](C2=O)[C@]2(C(=O)Nc4c(C)cccc42)N2CCC[C@@H]32)sc(C)c1C | > 19.5 µM (inactive) |
| CC1(C)CC(NC(=O)COc2ccccc2Cl)CC(C)(C)N1 | > 19.5 µM (inactive) |
| CCS(=O)(=O)c1ncc(Cl)c(C(=O)Nc2ccc(S(=O)(=O)N3CCC(C)CC3)cc2)n1 | 16.2 µM |
| Cc1ccccc1NC(=O)COC(=O)c1ccc(S(C)(=O)=O)c([N+](=O)[O-])c1 | 18.3 µM |
| Cc1nn(-c2ccccc2)c(Cl)c1C(=O)N1CCN(c2ncnc3c2cnn3-c2ccccc2)CC1 | 6.77 µM |
| COc1ccc(OC)c2c1C(=O)C(Cl)=C(Cl)C2=O | 2.29 µM |
| Cn1c(-c2nonc2N)nc2ccccc21 | > 19.5 µM (inactive) |
| Cc1cc([N+](=O)[O-])c2ccccc2[n+]1[O-] | 15.6 µM |
| O=C1C(Cl)=C(Nc2ccc3cn[nH]c3c2)C(=O)c2ccccc21 | 5.26 µM |
| Cc1occc1C(=O)Nc1cc(C(F)(F)F)ccc1Cl | > 19.5 µM (inactive) |
| Oc1ccc(CN2CCCc3ccccc32)c2cccnc12 | 4.67 µM |

| SMILES | AC50 |
| --- | --- |
| CCOc1cc(/C=N/NC(=O)c2cccc(S(=O)(=O)N3CCOCC3)c2)ccc1OCC(=O)N(C)C | > 19.5 µM (inactive) |
| CCOC(=O)COc1ccccc1/C=C\[N+](=O)[O-] | 5.63 µM |
| COc1ccccc1N(C)S(=O)(=O)c1ccc(C(=O)NC(C)c2ccccc2)cc1 (stereo unspecified) | > 19.5 µM (inactive) |
| CCCS(=O)(=O)N1CCc2cc(OC)c(OC)cc2C1 | > 10 µM (inactive) |
| NC(=O)c1cc2ccncc2c2ccccc12 | 0.805 µM |
| O=C(N/N=C/c1ccc[nH]1)c1ccc(COc2cccc3cccnc23)cc1 | 0.821 µM |
| S=C1Cc2ccccc2N1 | 2.46 µM |
| CC1CC(C)CN(C(=O)c2ccc(CSc3nc4ccncc4[nH]3)cc2)C1 (stereo unspecified) | 13.3 µM |
| O=C(NCc1ccc2c(c1)OCO2)c1nc(S(=O)(=O)Cc2ccccc2)ncc1Cl | 16.1 µM |
| O=S(=O)(Nc1cccc(Oc2cnccn2)c1)c1ccc(F)cc1 | > 19.5 µM (inactive) |
| N#Cc1cccc(C#N)c1Oc1ccc(S(=O)(=O)Nc2ccc(Cl)cc2)cc1 | 18.8 µM |
| CCOc1cc(C(=S)N2CCOCC2)ccc1OS(=O)(=O)c1ccc(OC)cc1 | 16.1 µM |
| Cc1cccc(C(=O)NC(=S)N2CCN(c3ccc([N+](=O)[O-])cc3)CC2)c1 | > 19.5 µM (inactive) |
| CCOc1c2ccc(C(=O)NCc3ccccc3OC)cc2nn1CC | > 19.5 µM (inactive) |
| CCCCn1c(C(C)NC(=O)CC)nc2ccccc21 (stereo unspecified) | > 19.5 µM (inactive) |
| Cc1nn(C(C)(C)C)c(C)c1/C=N/OC(=O)Nc1ccc(Cl)c(Cl)c1 | > 19.5 µM (inactive) |
| O=C(CCl)Nc1cn(-c2ccccc2)nc1-c1ccc(F)cc1 | 5.82 µM |
| CC(C)(C)C(=O)NC(=S)NNC(=O)c1sc2ccccc2c1Cl | > 19.5 µM (inactive) |
| CCOc1cc2c(cc1OCC)C(c1ccc(OC)cc1)N(c1ccccc1)C(=O)C2 (stereo unspecified) | > 19.5 µM (inactive) |
| Nc1ncnc2c1ccn2[C@@H]1O[C@H](CO)[C@@H](O)[C@H]1O | 3.17 µM |
| O=C(CCCCCn1c(=S)[nH]c2cc3c(cc2c1=O)OCO3)N1CCN(C(=O)c2ccco2)CC1 | > 19.5 µM (inactive) |
| Cc1oc2c(c1C(=O)NCc1cccnc1)C(=O)c1ccccc1C2=O | 0.891 µM |

| SMILES | AC50 |
| --- | --- |
| c1ccc(OCCSc2nc3ccccc3o2)cc1 | > 19.5 µM (inactive) |
| COc1cc2c(cc1OC)C(c1ccc(-c3ccc(Cl)c(Cl)c3)o1)=NCC2 | 18.8 µM |
| COc1ccc(CNC(=O)c2cnc3scc(C)n3c2=O)cc1 | > 19.5 µM (inactive) |
| CCOc1cc(C(=O)NCc2ccccc2)ccc1OCC(=O)N1CCOCC1 | > 19.5 µM (inactive) |
| CCOc1ccc(NCC(=O)c2ccc(C)cc2)cc1 | 12.7 µM |
| O=C(CNC(=S)N(CCCN1CCOCC1)Cc1cccs1)NCc1ccccc1Cl | > 19.5 µM (inactive) |
| Cc1ccc(OCC(=O)c2cc(C)n(-c3ccccc3)c2C)c([N+](=O)[O-])n1 | 8.65 µM |
| N#CC1=C(N)C(C#N)(C#N)C(c2cccnc2)C2CC(c3ccccc3)CC=C12 (stereo unspecified) | 19.2 µM |
| CCc1ccc(S(=O)(=O)/N=C2\C=C(Nc3ccc(O)cc3)C(=O)c3ccccc32)cc1 | 1.83 µM |
| O=C(O)c1ccc(NC2=C(Cl)C(=O)c3ccccc3C2=O)cc1 | 18.6 µM |
| CCCCn1c(=O)[nH]c(=O)c2c1nc(Cn1ncc(Cl)c(Cl)c1=O)n2CCC | 18.2 µM |
| COc1cccc(-c2nnc3n2N=C(C(C)(C)C)CS3)c1 | 0.484 µM |
| COc1ccc(C[C@H]2NC[C@H](O)[C@H]2OC(C)=O)cc1 | 0.171 µM |
| CC(C)(C)c1ccc2c(c1)OC(C(=O)N/N=C\c1ccc[nH]1)CO2 (stereo unspecified) | 0.182 µM |
| CC(=O)c1ccc(NC(=O)C2CCN(S(=O)(=O)c3cccc4cccnc34)CC2)cc1 | > 19.5 µM (inactive) |
| CCOCCn1c(SCC(=O)OCc2ccccc2)nc2c1c(=O)[nH]c(=O)n2C | > 19.5 µM (inactive) |
| COc1ccc2[nH]c3c(=O)n(CCCN4CCOCC4)cnc3c2c1 | > 19.5 µM (inactive) |
| CCSc1nnc(NC(=O)C(Cc2ccccc2)n2cccc2)s1 (stereo unspecified) | > 19.5 µM (inactive) |
| NC(=O)c1sc2nc3c(c(-c4cccs4)c2c1N)CCCCC3 | 0.404 µM |
| CN=c1scc(-c2ccco2)n1/N=C/c1ccc(O)c(O)c1 | 3.01 µM |
| CCOC(=O)c1c(N)sc2c(O)c(Br)ccc12 | > 19.5 µM (inactive) |
| Cc1nc2c(-c3ccccc3)c(C)[nH]n2c(=O)c1Cl | > 19.5 µM (inactive) |

| SMILES | AC50 |
| --- | --- |
| CCN(CC)S(=O)(=O)c1ccc2c(c1)c(=O)c(C(=O)NCc1ccco1)cn2C | > 19.5 µM (inactive) |
| O=C(NCc1ccncc1)C(=O)Nc1nc(C23CC4CC(CC(C4)C2)C3)cs1 | 12 µM |
| Cc1ccc(C)c(NC(=O)CCc2nnc3ccc(NCc4ccco4)nn23)c1 | > 19.5 µM (inactive) |
| CCOC(=O)N=Nc1c2ccccc2c2nc3no[nH]c3nc12 | 1.91 µM |
| Cc1sc2ncnc(NCCc3ccc(S(N)(=O)=O)cc3)c2c1C | 0.185 µM |
| OCCCNc1nccc(-c2cc(Nc3cccc(Cl)c3)ncn2)n1 | 0.354 µM |
| O=c1c2ccc(Cl)cc2nc(-c2cccc(C(F)(F)F)c2)n1O | 18.2 µM |
| CCNC(=S)N(C)CCc1cc2c(c(OC)c1C=C1C(=O)N(C)C(=O)N(C)C1=O)OCO2 | > 19.5 µM (inactive) |
| Nc1nc(F)nc2c1ncn2[C@@H]1O[C@H](CO)[C@@H](O)[C@H]1O | 0.981 µM |
| CCCCCn1c(=O)c(C(=O)Nc2ccccn2)c(O)c2ccccc21 | 1.4 µM |
| CC1=C(C(=O)OCc2ccc3c(c2)OCO3)C(c2ccc(F)cc2)NC(=O)N1 (stereo unspecified) | 0.27 µM |
| COc1cccc(CN(C)CC(=O)Nc2cccc(C(F)(F)F)c2)c1OC | 18.8 µM |
| CC(Nc1ncnc2sccc12)c1ccccc1 (stereo unspecified) | 0.349 µM |
| CCOC(=O)/C(=C\c1ccc([N+](=O)[O-])cc1)C(=O)c1cc(C(C)=O)c(Nc2ccccc2)s1 | 6.97 µM |
| Cc1cc(C)nc(NNC2=CC(=[N+]3CCCCC3)CC(C)(C)C2)n1 | 14.5 µM |
| O=C(NCCN1CCCCC1)Nc1ccccc1Cl | > 19.5 µM (inactive) |
| Cc1ccc(S(=O)(=O)c2ncccc2[N+](=O)[O-])cc1 | 16.5 µM |
| CC1(C)C[C@H]2C=C(C=O)[C@]3(C=O)C[C@]3(C)[C@H]2C1 | 17.9 µM |
| O=c1cc(-c2ccccc2)c2ccc(O)cc2o1 | > 19.5 µM (inactive) |
| CC1C/C(=N/Nc2nc3ccccc3[nH]2)CC(C)(C)C1 (stereo unspecified) | > 19.5 µM (inactive) |
| COc1ccc(NCc2nnc(SCC(=O)Nc3cc(C(F)(F)F)ccc3Cl)o2)cc1 | > 19.5 µM (inactive) |
| Cc1cc(C)c(S(=O)(=O)/N=C2\C=C(Nc3ccc(C(=O)O)cc3)C(=O)c3ccccc32)c(C)c1 | 4.97 µM |

| SMILES | AC50 |
| --- | --- |
| Cc1nc(NCc2ccco2)c2c(C)c(C)sc2n1 | 0.435 µM |
| O=C(Nc1ccccc1N1CCCCC1)C1CCN(C(=O)c2ccc(Cl)cc2)CC1 | > 19.5 µM (inactive) |
| COc1ccc(N2CCN(C(CNC(=O)C(=O)NCc3ccncc3)c3ccco3)CC2)cc1 (stereo unspecified) | > 19.5 µM (inactive) |
| CC(C)c1ccc(-c2nc3ccccc3s2)cc1 | > 19.5 µM (inactive) |
| Cc1cc(Nc2ccc3c(c2)OCCO3)c2cc(Cl)ccc2n1 | > 19.5 µM (inactive) |
| O=[N+]([O-])c1cnc(Sc2ccncn2)s1 | 13.1 µM |
| COc1ccc(S(=O)(=O)N2CCCCCC2)cc1C(=O)OCC(=O)NC(C)(C)C | > 19.5 µM (inactive) |
| CN(C)c1ccc(CNc2ccc3c(c2)ncn3C(C)(C)C)cc1 | > 19.5 µM (inactive) |
| CCc1ccc(C2=NNC(=Nc3cccc(S(=O)(=O)N(C)C)c3)SC2)cc1 | 2 µM |
| COc1ccc(CN2CCC(C(=O)Nc3ccc(Oc4cccnc4)cc3)CC2)c(C)c1C | 17.2 µM |
| CCN(CC)c1ncnc2ccc(Br)cc12 | 19.9 µM |
| CS(=O)(=O)c1nc(-c2ccccc2)cc(C(F)(F)F)n1 | 1.81 µM |
| CC1CCCCN1CC(=O)Nc1ccccc1Sc1ccccc1 (stereo unspecified) | 15.1 µM |
| Cc1ccc(S(=O)(=O)N2CCN(CC(=O)N/N=C\c3ccncc3)CC2)cc1 | > 19.5 µM (inactive) |
| COc1ccc2c(c1)c(CC(=O)Nc1nnc(C3CC3)s1)c(C)n2C(=O)c1ccc(Cl)cc1 | 0.284 µM |
| CCOc1ccc(-n2c(C)c(C(C)=O)c3cc(OC(C)=O)ccc32)cc1 | 2.24 µM |
| Cc1ccc(NC2=C/C(=N\S(=O)(=O)c3cccs3)c3ccccc3C2=O)c(C)c1 | 1.51 µM |
| COc1ccc(C(=O)c2c(C(F)(F)F)oc3c2C(=O)c2ccccc2C3=O)cc1 | 2.89 µM |
